{
  "source": "patent US9283199B2",
  "about": "“Halogenated aliphatic carboxylic acids, oligomers and/or polymers thereof and their use in devitalizing external and internal neoplasms” (Cimas Limited, priority 2009, dated 2016)",
  "key": {"Storage stability of DPA": {"assay": "Storage stability of DPA", "format": "physicochemical", "conditions": "stored in sealed brown glass containers between −4° C. and +50° C."}, "[1]": {"conditions": "in vivo; cited from earlier work"}, "[2]": {"tested_on": "benign, viral, pre-malignant, non-metastasizing malignant and mucosal tumor lesions", "assay": "Clinical study of topical DPA / DPA oligomer treatment of skin pathologies, long term follow-up (Example 1)", "format": "in vivo, human", "conditions": "all tumor types, 2-8 years follow-up", "procedure": "Patients suffering from benign tumors, viral warts or mucosal membraneus tumors were administered with the tetramer form of DPA. In some cases, DPA, as a monomer, was used. Patients suffering from premalignant or malignant tumors were administered with longer oligomers of DPA.\nIn most cases, the DPA monomer or oligomer was administered only once and without anesthesia or other special conditions. Only in cases of patients suffering from Recklinghausen disease (a multiple form of peripheral Neurofibromatosis), when the number of skin tumor lesions was more than 100, multiple treatment sessions were performed. […]\nThe safety of DPA oligomer treatment was assessed by evaluating the treated skin lesion appearance, local skin reaction, vital sign measurements, adverse events and concomitant medications taken by the patient. […]\nAt the 3-week, 6-week and 12-week post-treatment visit(s), a clinical assessment was performed to determine whether treated lesions were visible at the target site. Pigmented lesions, suspected of being malignant, were further evaluated microscopically by the excision of a biopsy sample with a 3 mm margin from the lesion, using the radioelectro technique, and histopathologically examining the sample for evidence of residual or recurrence of tumor. […]"}, "[3]": {"conditions": "in vivo; cited from earlier work", "remark": "listed apart in the source"}, "[4]": {"conditions": "cited from earlier work"}},
  "note": "Like-named read-outs stand apart in the source and are kept apart here.",
  "data": [
    {"molecule": "CC(Cl)(Cl)C(=O)O", "note": "[DPA, 2,2-Dichloropropanoic acid]", "values": [
      {"measurement": "chemoanalytical and biological (efficacy) stability", "setting": "Storage stability of DPA", "result": "at least 5 years"},
      {"measurement": "accumulation in animal tissues", "setting": "[1]", "result": "does not build up in animal tissues"},
      {"measurement": "Very good result (++++) %", "setting": "[2]; Total", "result": 82.1, "unit": "%"},
      {"measurement": "satisfactory level of clinical results observed, % of the tumors", "setting": "[2]", "result": 99.1, "unit": "%"},
      {"measurement": "half-life in human blood", "setting": "[3]", "result": "36 to 72", "unit": "h"},
      {"measurement": "solubility in water", "setting": "[4]; DPA and all of its known breakdown products", "result": "dissolve easily in water"},
      {"measurement": "solubility in water", "setting": "[4]; at 25° C.", "result": 90, "unit": "g/100 ml"},
      {"measurement": "solubility in organic solvents and lipids", "setting": "[4]", "result": "insoluble"}
    ]}
  ]
}
